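Grown in 96-well plates, cells were treated for 48 hours with each compound at five concentrations. Insufficient inhibition: endpoint recorded as highest concentration tested. GI50 is the concentration that inhibits growth by half. TGI: total growth inhibition.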
Tests used:
Experiment in all cases: NCI-60 cell line screen, 48 h
SW-620 colon = system: SW-620 colon
MDA-MB-435 = system: MDA-MB-435
HT29 colon = system: HT29 colon
SR leukemia = system: SR leukemia
HCC-2998 colon = system: HCC-2998 colon
RXF 393 renal = system: RXF 393 renal
A498 renal = system: A498 renal
HCT-15 colon = system: HCT-15 colon
KM12 colon = system: KM12 colon
SF-539 CNS = system: SF-539 CNS

| Structure (SMILES) | GI50 (SW-620 colon) [µM] | TGI (SW-620 colon) [µM] | GI50 (MDA-MB-435) [µM] | TGI (MDA-MB-435) [µM] | GI50 (HT29 colon) [µM] | TGI (HT29 colon) [µM] | GI50 (SR leukemia) [µM] | TGI (SR leukemia) [µM] | GI50 (HCC-2998 colon) [µM] | TGI (HCC-2998 colon) [µM] | GI50 (RXF 393 renal) [µM] | TGI (RXF 393 renal) [µM] | GI50 (A498 renal) [µM] | TGI (A498 renal) [µM] | GI50 (HCT-15 colon) [µM] | TGI (HCT-15 colon) [µM] | GI50 (KM12 colon) [µM] | TGI (KM12 colon) [µM] | GI50 (SF-539 CNS) [µM] | TGI (SF-539 CNS) [µM] |
| --- | --- | --- | --- | --- | --- | --- | --- | --- | --- | --- | --- | --- | --- | --- | --- | --- | --- | --- | --- | --- |
| Clc1ccc(Nc2nnc(COc3ccccc3)c3ccccc23)cc1 | 2.86 | 7.79 | 1.01 | 5.31 | 0.429 | 4.25 | 1.23 | 11.2 | 3.81 | 8.36 | 1.01 | 4.98 | 0.686 | 3.64 | 2.05 | 6.75 | 2.65 | 7.72 | 3.12 | 7.58 |
| OC(CBr)C(O)C(O)C(O)CBr (stereo unspecified) | – | > 100 | – | > 100 | – | > 100 | – | > 100 | – | > 100 | – | > 100 | – | > 100 | > 100 | > 100 | – | > 100 | – | > 100 |
| C=C1CC2(CC(c3ccccc3C)OC(c3ccccc3C)C2)OC1=O (stereo unspecified) | – | 3.59 | – | 3.13 | – | 3.53 | – | > 26.8 | – | 5.82 | – | 3.88 | – | 21.6 | – | 3.86 | – | 6.06 | – | 3.1 |
| Fc1ccc(Nc2ccnc(N3CCN(c4ccnc5cc(Cl)ccc45)CC3)n2)cc1 | 2.92 | 13.9 | 1.93 | 4.92 | 1.46 | 3.14 | 2.61 | 8.76 | 3.4 | 13.7 | 3.39 | 72.3 | 1.81 | 9.61 | 2.3 | 7.93 | 2.33 | 6.66 | 2.95 | 10.3 |
| C=C1C(=O)O[C@H]2[C@H]1CC/C(COC(=O)NCCc1ccc(Br)cc1)=C\CC[C@@]1(C)O[C@@H]21 | 0.711 | 2.4 | 1.28 | 2.81 | 1.32 | 3.38 | 0.43 | 2.91 | 1.71 | 3.37 | 1.2 | 2.68 | 2.07 | 4.21 | 1.01 | 2.33 | 1.95 | 4.46 | 1.46 | 2.88 |
| CN1c2cccc[c]2[Sn]([CH3])([CH3])[c]2ccccc21 | 0.019 | 0.0675 | < 0.01 | 0.0291 | < 0.012 | < 0.0249 | < 0.01 | 0.0387 | < 0.01 | 0.0247 | 0.0279 | 0.202 | 0.101 | 0.255 | < 0.0125 | 0.116 | < 0.01 | < 0.0169 | < 0.011 | 0.0473 |
| CC(=O)Nc1ccc2c(c1)[nH]c(=O)c1cc(NC(C)=O)ccc12 | > 100 | > 100 | > 100 | > 100 | > 100 | > 100 | 15.5 | 53.4 | > 100 | > 100 | > 100 | > 100 | > 100 | > 100 | > 100 | > 100 | > 100 | > 100 | > 100 | > 100 |
| O=C(Nc1n[nH]c2cc(-c3ccc(F)cc3)ccc12)C1CC1 | 7.69 | > 25 | 2.31 | 12.1 | 7.9 | > 25 | 2.76 | > 25 | 8.27 | > 25 | 5.73 | > 22.6 | 12.3 | > 25 | 5.7 | > 25 | 4.11 | > 25 | 11.2 | > 25 |
| CCN(Cc1c(F)cccc1C(F)(F)F)c1ccc(CO)c(Cl)c1 | 0.79 | 20.4 | 14.2 | 28.3 | 2.99 | 17.7 | 14.5 | 36.5 | 16.7 | 33 | 12.6 | 28.5 | < 0.0191 | 0.0463 | 12.8 | 27.1 | 14.1 | 29.4 | 15.6 | 29.4 |
| O=C(COc1ccc(Cl)cc1Cl)NNc1ccc([N+](=O)[O-])cc1 | > 100 | > 100 | > 100 | > 100 | > 100 | > 100 | 49.9 | > 100 | > 100 | > 100 | 17 | 39.9 | 21.6 | 53.8 | > 100 | > 100 | > 100 | > 100 | 99.8 | > 100 |
| COc1cc(/C=C/[N+](=O)[O-])cc(OC)c1 | 1.68 | 3.65 | 2.99 | 10.3 | 3.08 | 10.4 | 1.14 | 5.45 | 1.98 | 3.59 | 1.75 | 3.27 | 2.96 | 9.12 | 1.99 | 6.11 | 3.08 | 10.5 | 2.49 | 5.56 |
| O=C(Nc1c(Cl)cccc1Cl)Oc1cccc2cccnc12 | 4.23 | > 100 | 7.52 | > 100 | 19.4 | > 100 | 3.59 | 30.4 | 5.82 | 24.6 | 16.7 | > 100 | 7.99 | 48 | 0.992 | > 100 | 4.69 | 70.4 | 4.57 | 19 |
| COc1ccc(N2CCN(c3nc(-c4ccccn4)nc4sc5c(c34)CCCCCC5)CC2)cc1 | 5.08 | > 100 | 5.49 | > 100 | 5.06 | > 100 | 3.18 | > 100 | 10.3 | > 100 | > 100 | > 100 | 3.3 | > 100 | 4.26 | > 100 | 5.15 | > 100 | 66.9 | > 100 |
| O=C1NC(=O)/C(=C/c2ccc3nccc(-c4ccncc4)c3c2)S1 | 0.517 | > 10 | 0.402 | > 7.25 | 0.423 | 6.29 | 0.547 | 4.88 | 0.35 | 3.89 | 0.251 | 1.3 | 0.0335 | 0.208 | 0.292 | > 5.08 | 0.817 | > 10 | 0.294 | 1.58 |
| COc1cc2cc(C(=O)Nc3ccccc3)c(N)nc2cc1OC | > 100 | > 100 | 48.7 | > 100 | 51.5 | > 100 | 33.9 | > 100 | 94.4 | > 100 | 23.7 | > 100 | 4.7 | 30.9 | 31.3 | > 100 | 46 | > 100 | 71.6 | > 100 |

From PubChem BioAssay (NCI)
